{"source": "patent US20140378551A1", "about": "“Composition for the Prophylactic Treatment of Neuropathic Pain” (Universite d'Auvergne, priority 2011, published 2014)", "key": {"[1]": {"system": "tyrosine 1472 of the NR2B sub-unit of the NMDA receptor", "experiment": "Western blot of phosphorylated tyrosine 1472 of NR2B at the spinal level", "type": "in vivo, rat", "description": "The effects of memantine are also evaluated in the expression of the phosphorylation of tyrosine 1472 of the NR2B sub-unit of the NMDA receptor at the spinal level by the Western-blot technique.\nThe rats are sacrificed by decapitation. The lumbar enlargements (L4-L6) are collected and subjected to lysis at 4° C. in 400 μL of stop buffer (50 mM Hepes, pH 7.5, containing 150 mM NaCl, 10 mM EDTA, 10 mM Na2P2O7, 2 mM Na3VO4, 100 mM NaF 1% Triton, 0.5 mM PMSF, 100 UI/mL Iniprol and 20 μM Leupeptine).\nAfter sonication, two operations of centrifugation at 14,000 rpm at 4° C. are used to retrieve the proteins from the cytoplasm. The supernatant is retrieved and the proteins are determined by colorimetry (BC Assay UP40840A®, Interchim). They are denatured at 100° C. for five minutes in a buffer Tris 100 mM, pH 6.8, containing 6% SDS, 20% Glycerol and 20% bromophenol/(β-mercaptoethanol. Electrophoresis is used to separate the proteins on a polyacrylamide gel. The migration is done at 90 mA for two hours in the following buffer: Tris 50 mM, pH 7.4, containing 380 mM Glycine and 7 mM SDS. The proteins are then transferred to a nitrocellulose membrane (Millipore) for three hours in a buffer Tris 25 mM, pH 8.3, containing 190 mM Glycine, 20% methanol (percentage by volume). The protocols are carried out according to the recommendations of the supplier and differ according to the antibody considered.\nAfter blocking of the non-specific sites with a solution containing 5% of non-fat dried milk, the membrane is incubated throughout the night at […] under agitation with the antibody of interest diluted in the blocking solution, namely an anti-pTyr^1472 NR2B antibody recognizing NR2B phosphorylated on tyrosine 1472 (dilution by volume=1/1000, Millipore).\nThe membrane is then hybridized for one hour under agitation with an antibody coupled with peroxydase (dilution by volume=1/10 000, Pierce) diluted in the blocking buffer.\nThe developing is done by chemiluminescence (Super Signal® West Pico\nChemiluminescent Substrate, Pierce). […]"}, "[2]": {"system": "post-operative neuropathic pain", "experiment": "Phase 2 clinical trial, pain self-evaluation after mastectomy and axillary dissection", "type": "in vivo, human", "details": "follow-up after operation, self-evaluation scale 1 to 10; preliminary results", "description": "A phase 2 clinical trial on the development and evaluation of neuropathic pain was conducted among patients having to undergo mastectomy and axillary dissection. The patients were separated randomly into two groups: • a control group who were to receive lactose as a placebo; and • a group treated by memantine hydrochloride (EBIXA®).\nThe clinical trial protocol is described in detail in the form referenced NTC014536314 (http://clinicaltrials.gov). […]\nThe patient's pain was evaluated by asking them to assess their own pain on a numerical scale ranging from 1 to 10 (10 being the maximum stage of pain) for the two weeks following the operation and for three months following the operation. […] The development of neuropathic pain is also evaluated by the DN4 questionnaire on neuropathic pain, and the Questionnaire sur la Douleur de Saint-Antoine (QDSA) or “Saint-Antoine pain questionnaire”. […]\nFIG. 7 is a graph showing the preliminary results obtained on the first […] having taken part in these clinical trials (six patients had received the placebo composition and seven patients had received the memantine-hydrochloride-based composition), their pain being evaluated by the method of self-evaluation on a scale of 1 to 10. […]"}}}
{"smiles": "CC12CC3CC(C)(C1)CC(N)(C3)C2", "note": "[memantine, 1-amino-3,5-dimethyl-adamantane]", "values": [{"measurement": "rate of phosphorylation of the tyrosine 1472 residue of NR2B", "setting": "[1]; SNL rats treated preventively, spinal cord, Western blot", "result": "equivalent firstly to that of the non-treated Sham rats and is secondly far lower than that of the operated rats that have not been treated with memantine"}, {"measurement": "phosphorylation of the tyrosine 1472 residue of NR2B", "setting": "[1]; Sham rats, spinal cord, Western blot", "result": "does not significantly diminish the phosphorylation of the tyrosine 1472 residue"}, {"measurement": "phosphorylation of the tyrosine residue at position 1472 (pTyr1472) of NR2B", "setting": "[1]; summary statement", "result": "significantly inhibits the phosphorylation"}, {"measurement": "level of pain versus placebo", "setting": "[2]", "result": "patients having received the placebo have a higher level of pain than patients having received memantine"}]}
